From PMC5293833, “Mycobacterium tuberculosis Prolyl Oligopeptidase Induces In vitro Secretion of Proinflammatory Cytokines by Peritoneal Macrophages” (Frontiers in Microbiology, 2017)
Starred links: 1 amine or outer side, 2 acyl side, 3 side chain; linkers in the order of their positions; H or OH if unused. Residues, ends and D or L forms follow the SMILES beside them. *: point of attachment. AMC = Cc1cc(=O)oc2cc(N*)ccc12; Suc = O=C(CCC(=O)[*:2])[*:1]

What was measured:
Assay type in all cases: biochemical
[1] = molecular target: T1, prolyl oligopeptidase (POPMt) (Mycobacterium tuberculosis, UniProt O07178); assay: fluorogenic AMC substrate assay, % inhibition at […]; settings: 1000 µM
T1 construct: gene Rv0457c
T1 sequence (O07178 entry or part of it): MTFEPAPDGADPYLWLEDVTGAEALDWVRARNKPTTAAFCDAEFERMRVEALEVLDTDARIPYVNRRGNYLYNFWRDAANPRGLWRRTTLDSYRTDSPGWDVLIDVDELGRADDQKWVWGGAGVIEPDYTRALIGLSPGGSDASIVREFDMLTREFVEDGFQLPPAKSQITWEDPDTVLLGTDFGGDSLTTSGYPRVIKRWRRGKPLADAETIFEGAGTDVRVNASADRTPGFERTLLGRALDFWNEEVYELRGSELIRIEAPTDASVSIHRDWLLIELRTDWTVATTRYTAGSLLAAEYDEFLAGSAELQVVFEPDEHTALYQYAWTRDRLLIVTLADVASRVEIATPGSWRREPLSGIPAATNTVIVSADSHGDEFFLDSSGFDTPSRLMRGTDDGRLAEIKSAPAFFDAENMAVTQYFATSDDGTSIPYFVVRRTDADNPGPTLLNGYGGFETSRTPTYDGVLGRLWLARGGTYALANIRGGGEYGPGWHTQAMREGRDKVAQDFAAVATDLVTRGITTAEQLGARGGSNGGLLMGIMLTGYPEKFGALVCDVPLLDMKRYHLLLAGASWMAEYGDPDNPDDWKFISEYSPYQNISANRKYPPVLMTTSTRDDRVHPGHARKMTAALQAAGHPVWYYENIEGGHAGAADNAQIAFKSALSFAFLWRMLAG

[2] = molecular target: T1, prolyl oligopeptidase (POPMt)
[3] = molecular target: T1, prolyl oligopeptidase (POPMt); assay: fluorogenic AMC substrate assay, % inhibition at […]

Compound | inhibition at 100 µM [3] [%] | further results
NCCc1ccc(S(=O)(=O)F)cc1 [AEBSF] |  | Inhibition (%) [1]: 33
Cc1cc(=O)oc2cc(NC(=O)[C@@H]3CCCN3C(=O)CNC(=O)CCC(=O)O)ccc12 [N-Suc-Gly-Pro-AMC] (Suc-Gly-Pro-{AMC}) |  | Relative activity (%) [2]: 48 % relative activity
Cc1ccc(S(=O)(=O)N[C@@H](CCCCN)C(=O)CCl)cc1 [TLCK] | 35 | 
Cc1ccc(S(=O)(=O)N[C@@H](Cc2ccccc2)C(=O)CCl)cc1 [TPCK] | 66 | 
